Values of other authors, collected in US20030065040A1, “Pharmaceutical compositions including sampatrilat dispersed in a lipoidic vehicle” (priority 2001, published 2003).
Where two headings read alike, the source gives them in different places.

Columns and labels:
[1] = man; reported to be as low as
[2] = dogs; reported to be as low as

Structure (SMILES): CS(=O)(=O)N[C@@H](CCCCN)C(=O)NC[C@H](CC1(C(=O)N[C@@H](Cc2ccc(O)cc2)C(=O)O)CCCC1)C(=O)O [Sampatrilat, sampatrilat]
- oral bioavailability [1]: 2%
- oral bioavailability [2]: 5%
